Measurements published in PubChem BioAssay (NCI).
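Assay format: 96-well plates, 48-hour exposure. TGI: concentration producing complete growth inhibition.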 Where a SMILES comes first, the peptide text is derived from it. [ ]: non-standard residue; d: D form. The star is where a group is joined. Cbz = O=C(OCc1ccccc1)*; Aib = CC(C)(N)C(=O)O; OBn = c1ccc(CO*)cc1

How the values were obtained:
Experiment in all cases: NCI-60 cell line screen, 48 h
HS 578T breast = system: HS 578T breast
OVCAR-5 ovarian = system: OVCAR-5 ovarian
SN12C renal = system: SN12C renal
HT29 colon = system: HT29 colon
HOP-62 NSCLC = system: HOP-62 NSCLC
NCI-H226 lung = system: NCI-H226 lung
HCC-2998 colon = system: HCC-2998 colon
RXF 393 renal = system: RXF 393 renal
SNB-19 CNS = system: SNB-19 CNS
UO-31 renal = system: UO-31 renal

Compound	TGI (HS 578T breast) [µM]	TGI (OVCAR-5 ovarian) [µM]	TGI (SN12C renal) [µM]	TGI (HT29 colon) [µM]	TGI (HOP-62 NSCLC) [µM]	TGI (NCI-H226 lung) [µM]	TGI (HCC-2998 colon) [µM]	TGI (RXF 393 renal) [µM]	TGI (SNB-19 CNS) [µM]	TGI (UO-31 renal) [µM]
C[C@@H]1CCC2[C@@H](C)[C@@H](O[C@H]3O[C@@H]4O[C@@]5(C)CCC6[C@H](C)CCC([C@H]3C)[C@]64OO5)O[C@@H]3O[C@@]4(C)CCC1[C@@]23OO4 (stereo not given in full)	> 25	> 25	> 25	> 25	> 25	> 25	> 25	> 25	> 25	> 25
CN(C)Cc1cc(C(=O)/C=C/c2ccc([N+](=O)[O-])cc2)cc(CN(C)C)c1O	60.3	34.5	20.2	25	19.5	19.2	32.5	38.1	> 100	> 100
Cc1c2c(c(C)n1-c1ccccc1)C(=O)N(CCN1CCN(c3cccc(C(F)(F)F)c3)CC1)C2=O	> 100	> 100	> 100	> 100	> 100	> 100	> 100	> 100	> 100	> 100
O=C(CC(=O)Nc1ccccc1)NNC(Sc1ccccc1)c1cc(N=Nc2ccc(Br)cc2)ccc1O (stereo not given)	> 10	> 10	> 10	> 10	> 10	5.04	> 10	> 10	> 10	> 10
Cc1ccc(/C=C2/N=C(N/N=C\C(O)C(O)C(O)C(O)CO)NC2=O)cc1 (stereo not given)	> 100	> 100	> 100	> 100	> 100	> 100	> 100	> 100	> 100	> 100
COc1ccc(N2C(=O)C3c4[nH]c5cc(C)ccc5c4C4CCC(C(C)(C)C)CC4C3C2=O)cc1 (stereo not given)	> 10	> 10	> 10	> 10	> 10	> 10	> 10	> 10	> 10	> 10
CC(NC(=O)C(C)(C)NC(=O)C(CC(=O)OCc1ccccc1)NC(=O)OCc1ccccc1)C(N)=O (stereo not given) (Cbz-Asp(OBn)-[Aib]-Ala-NH2; configuration not given here)	> 100	> 100	> 100	> 100	> 100	> 100	> 100	> 100	> 100	> 100
OCCCc1ccc2c(c1)[C@H](CO)[C@@H](c1ccc(O)cc1)O2	38.6	> 100	> 100	> 100	> 100	> 100	37.3	> 100	> 100	> 100
CO/N=C(/C(=O)OC)c1ccccc1COc1ccccc1C(F)(F)F	> 100	> 100	> 100	> 100	> 100	> 100	> 100	> 100	> 100	> 100
C/C1=C\[C@H](C)C[C@H](C)OC(=O)[C@H](C)NC(=O)[C@@H](Cc2ccc(O)c(Br)c2)N(C)C(=O)[C@H](C)NC(=O)[C@@H](C)C1	3.76	> 25	> 25	> 3.13	0.112	0.787	> 25	0.858	9.32	0.152
COc1cc(O)c2c(=O)c(OC)c(-c3ccc(OC)c(O)c3)oc2c1	> 100	> 100	> 100	> 100	> 100	> 100	> 100	> 100	> 100	> 100
CC1=C(C#N)c2nc3ccccc3n2C(=O)C1(C)CCO (stereo not given)	> 100	> 100	> 100	> 100	> 100	> 100	> 100	> 100	> 100	> 100
Cc1cc(C[C@H]2O[C@@H]3OC(C)(C)O[C@@H]3[C@H]3OC(C)(C)O[C@H]32)c2ccccc2n1	> 100	> 100	> 100	> 100	> 100	> 100	> 100	> 100	> 100	> 100
O=C(CCSC1=NCCCN1)c1ccc(F)cc1	62.6	29.9	43.6	40.5	> 68.9	41.9	36.5	33	42.7	20.6
CSc1nc2c(c(N(C)C)n1)C(O)n1c(nc3ccccc31)S2 (stereo not given)	> 70.8	> 100	> 100	> 100	69.1	> 100	> 100	65.3	> 77.9	> 100
O=C1c2cccc3cccc(c23)C(=O)N1CCCNCCCCNCCCNCCCN1C(=O)c2cccc3cccc(c23)C1=O	2.11	2.76	1.8	1.15	3.6	2.15	1.86	1.44	1.58	18.6

Compound	TGI (HS 578T breast) [µM]	TGI (OVCAR-5 ovarian) [µM]	TGI (SN12C renal) [µM]	TGI (HT29 colon) [µM]	TGI (HOP-62 NSCLC) [µM]	TGI (NCI-H226 lung) [µM]	TGI (HCC-2998 colon) [µM]	TGI (RXF 393 renal) [µM]	TGI (SNB-19 CNS) [µM]	TGI (UO-31 renal) [µM]
c1ccc(C(C(=Nc2ccc(Cc3ccc(N=C(C(c4ccccc4)c4ccccc4)N4CC4)cc3)cc2)N2CC2)c2ccccc2)cc1	35.7	24.5	32.3	15.9	33	38.3	23.6	16.1	27.7	14.8
O=c1onc2n1-c1cc(Cl)ccc1C(=S)N1CSCC21 (stereo not given)	> 100	> 100	> 100	> 100	> 100	> 100	> 100	> 100	> 100	> 100
CC(C)(C)OC(=O)NC(CSSCC(NC(=O)OC(C)(C)C)C(=O)O)C(=O)O (stereo not given)	> 100	> 100	> 100	> 100	> 100	> 100	> 100	> 100	> 100	> 100
Cc1ccc2c(c1)c1ccc3c(c1n2C)C(=O)C=CC3=O	8.66	> 10	> 7.51	> 10	> 10	> 10	> 10	3.46	> 10	3.17
CC(C)N1CCN(c2ccc(OCC3COC(Cn4cncn4)(c4ccc(Cl)cc4Cl)O3)cc2)CC1 (stereo not given)	31	29.8	30.7	13.4	28.5	30.1	21.1	25	> 57.4	> 42.5
C=C1C(=O)[C@@]23CC[C@@H]4[C@@]5(C)CCC[C@@]4(OC5=O)[C@@]2(C)CC[C@@H]1C3	> 54	6.27	23.5	10.6	> 23.7	9.15	5.56	3.25	9.08	3.43
COc1ccc(-c2nc3ccccc3c(=S)n2OC(C)=O)cc1	> 25	> 25	> 25	> 25	> 25	> 25	> 25	> 25	> 25	> 25
CCOC(=O)c1c2cccccc-2nc1Nc1cccc2c(C)ccnc12	> 10	> 10	> 10	> 10	> 10	> 10	> 10	> 10	> 10	> 10
C=CCn1c(=O)ccn(/C(=C/C(=O)OCC)C(=O)OCC)c1=O	73.4	29.9	25.2	27.9	44.4	> 31.6	31.8	28.5	> 58.3	28.6
CCOC(=O)C(NC(=O)CC)(N1CCN(c2cc3c(cc2F)c(=O)c(C(=O)O)cn3C2CC2)CC1)C(F)(F)F (stereo not given)	> 100	> 100	> 100	> 100	> 100	> 100	> 100	> 100	> 100	> 100
COc1ccc(C(=O)NCCN(C)C)c2nc3ccccc3cc12	4.91	8.06	3.28	5.6	2.72	3.26	8.34	6.67	9.49	5.14
O=c1c2c(no[n+]2[O-])c2ccccc2n1-c1ccccc1	39.1	21.9	17.2	15.5	22.5	30.7	20.6	14.7	25	16.6
Cc1nc2ccccc2c(-n2cccn2)c1CCn1cccn1	> 100	> 100	> 100	> 100	> 100	> 100	> 100	> 100	> 100	3.43
O=C1N(Cc2ccccc2)C2CSCC2N1Cc1ccccc1 (stereo not given)	66.5	> 100	> 100	38.1	58.3	64.6	62.9	69.4	> 100	93.5
COc1ccc(/C=N/NC(=O)c2ccc(O)c(CN(C)C)c2)cc1	> 100	> 100	> 100	> 100	> 100	> 100	> 100	> 100	> 100	> 100
CNc1[nH]c(=S)nc2sc3c(c12)CCCC3	> 75	> 75	> 75	> 75	> 75	> 75	> 75	> 75	> 75	> 75
